Patent US7446225B2, “Pentafluorosulfanylphenyl-substituted benzoylguanidines, method for the production thereof, their use as a medicament or diagnostic agent, and a medicament containing these compounds” (Sanofi-aventis Deutschland GmbH, priority 2004, dated 2008)

Target: T1, human NHE-1 (Homo sapiens, UniProt P19634)
T1 construct: expressed in transfected cells; host or cells: LAP-1 (NHE-deficient parental cell line), stably transfected, G418 selection
Assay: FLIPR assay of pHi recovery for NHE-1 inhibition
Format: cell-based
Conditions: transfected LAP-1 cell line expressing human NHE-1, BCECF pHi recovery, read-out: NHE1 inhibition IC50
Method: The inhibitory concentration IC50 for NHE-1 inhibition was determined as follows:
IC50 for NHE-1 inhibition were determined in a FLIPR assay by measurement of the recovery in pHi in transfected cell lines which express human NHE-1.
The assay was carried out in an FLIPR (fluorescent imaging plate reader) with black-walled 96-well microtiter plates with clear bases.
The growth medium for the transfected cells (Iscove+10% fetal calf serum) additionally contained G418 as selection antibiotic in order to ensure the presence of the transfected sequences.
The actual assay started with the removal of the growth medium and addition of 100 μl of loading buffer per well (5 μM BCECF-AM [2′,7′-bis(carboxyethyl)-5-(and -6-)carboxyfluorescein, acetoxymethyl ester] in 20 mM NH4Cl, 115 mM choline chloride, 1 mM MgCl2, 1 mM CaCl2, 5 mM KCl, 20 mM HEPES, 5 mM glucose; pH 7.4 [adjusted with KOH]). The cells were then incubated at 37° C. for 20 minutes. This incubation led to loading of the cells with the fluorescent dye whose fluorescence intensity depends on pHi, and with NH4Cl which makes the cells slightly alkaline. The nonfluorescent dye precursor BCECF-AM is, as ester, membrane-permeable. The actual dye BCECF is not membrane-permeable but is liberated inside cells by esterases. […]

T1 sequence (P19634 whole entry): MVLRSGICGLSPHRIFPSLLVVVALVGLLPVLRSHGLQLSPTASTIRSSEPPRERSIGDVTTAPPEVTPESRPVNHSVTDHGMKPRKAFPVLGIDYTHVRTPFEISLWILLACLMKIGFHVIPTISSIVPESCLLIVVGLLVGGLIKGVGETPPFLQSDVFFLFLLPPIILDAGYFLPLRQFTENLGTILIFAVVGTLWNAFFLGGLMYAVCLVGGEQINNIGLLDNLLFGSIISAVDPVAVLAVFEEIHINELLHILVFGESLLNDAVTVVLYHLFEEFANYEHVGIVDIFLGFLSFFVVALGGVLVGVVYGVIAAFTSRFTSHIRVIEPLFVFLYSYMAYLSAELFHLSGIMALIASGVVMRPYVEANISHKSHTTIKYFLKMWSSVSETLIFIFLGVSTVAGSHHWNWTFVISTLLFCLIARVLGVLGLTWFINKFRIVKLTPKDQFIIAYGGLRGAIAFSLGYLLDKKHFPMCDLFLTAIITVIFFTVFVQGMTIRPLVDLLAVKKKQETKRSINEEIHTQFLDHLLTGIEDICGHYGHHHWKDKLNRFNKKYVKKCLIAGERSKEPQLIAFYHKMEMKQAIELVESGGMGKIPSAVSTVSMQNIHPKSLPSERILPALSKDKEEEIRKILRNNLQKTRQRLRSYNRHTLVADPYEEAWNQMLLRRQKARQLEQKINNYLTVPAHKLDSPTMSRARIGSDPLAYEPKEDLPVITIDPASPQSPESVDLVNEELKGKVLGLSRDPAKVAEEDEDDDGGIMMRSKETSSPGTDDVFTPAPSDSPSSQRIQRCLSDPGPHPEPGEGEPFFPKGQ

In the case of `Cc1cc(Oc2ccc(S(C)(=O)=O)c(S(F)(F)(F)(F)F)c2)c(S(C)(=O)=O)cc1C(=O)N=C(N)N` [Example 1, N-[5-methanesulfonyl-4-(4-methanesulfonyl-3-pentafluorosulfanyl-phenoxy)-2-methylbenzoyl]guanidine], the IC50 is reported as 33 nM.
